# Data: US10538555B2, “Macrocyclic inhibitors of the PD-1/PD-L1 and CD80(B7-1)/PD-L1 protein/protein interactions” (BRISTOL-MYERS SQUIBB COMPANY, priority 2014, dated 2020)
# pIC50: −log10 of the molar value. Where a SMILES comes first, the peptide text is derived from it. Bridges are numbered along the chain shown (N, C = ends). [ ]: non-standard residue; d: D form. ξ: configuration not given here. Phe(3,4,5-F3) = N[C@@H](Cc1cc(F)c(F)c(F)c1)C(=O)O; Phe(3,4-F2) = N[C@@H](Cc1ccc(F)c(F)c1)C(=O)O; NMePhe(4-F) = CN[C@@H](Cc1ccc(F)cc1)C(=O)O; Morpholine(3S-CO) = O=C(O)[C@@H]1COCCN1; ξαMeW = CC(N)(Cc1c[nH]c2ccccc12)C(=O)O; 2Nal = N[C@@H](Cc1ccc2ccccc2c1)C(=O)O; d(cisHyp) = O=C(O)[C@H]1C[C@@H](O)CN1; Hyp = O=C(O)[C@@H]1C[C@@H](O)CN1; NMeF = CN[C@@H](Cc1ccccc1)C(=O)O; dHyp = O=C(O)[C@H]1C[C@H](O)CN1; NMeNle = CCCC[C@H](NC)C(=O)O; dPip = O=C(O)[C@H]1CCCCN1; hSer = N[C@@H](CCO)C(=O)O; NMeA = CN[C@@H](C)C(=O)O; Orn = NCCC[C@H](N)C(=O)O; dThz = O=C(O)[C@H]1CSCN1; Dab = NCC[C@H](N)C(=O)O; Dap = NC[C@H](N)C(=O)O; ξC = NC(CS)C(=O)O; Sar = CNCC(=O)O
# Target: T1, Human PD-L1/PD-1 (Homo sapiens, UniProt Q9NZQ7)
# T1 construct: TVMV protease cleavage site (C); made in house; host or cells: HEK293T cells
# T1 sequence (Q9NZQ7 with tags, fused parts or gaps): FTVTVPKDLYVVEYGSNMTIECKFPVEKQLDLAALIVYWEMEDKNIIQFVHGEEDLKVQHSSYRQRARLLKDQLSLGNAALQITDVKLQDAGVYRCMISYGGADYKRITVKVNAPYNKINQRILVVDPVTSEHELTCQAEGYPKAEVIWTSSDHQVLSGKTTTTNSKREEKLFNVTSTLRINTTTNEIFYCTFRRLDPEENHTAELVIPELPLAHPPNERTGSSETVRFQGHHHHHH
# Experiment: HTRF Human PD-L1/PD-1 binding assay (PD-1-Ig/PD-L1-His)
# Conditions: PD-L1-His 10 nM, PD-1-Ig 20 nM; class symbol; read-out: HTRF Human PD-L1/PD-1 Binding Assay IC50 Range
# How it was run: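 Compound preincubated 15 min with PD-L1-His (10 nM final), then PD-1-Ig (20 nM final) added for 15 min in dPBS with 0.1% BSA and 0.05% Tween-20. Detection by Eu-cryptate anti-Ig (1 nM) and APC anti-His (20 nM) after 30 min; 665/620 nm HTRF ratio. Proteins expressed in HEK293T.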
row,Compound,pIC50
1,CCCC[C@H]1C(=O)N(C)[C@@H](CCCC)C(=O)N[C@@H](C)C(=O)N[C@H](C(=O)NCC(N)=O)CSCC(=O)N[C@@H](Cc2ccc(O)cc2)C(=O)N2CCOC[C@H]2C(=O)N[C@@H](CC(=O)O)C(=O)N2CCC[C@H]2C(=O)N[C@@H](Cc2cnc[nH]2)C(=O)N[C@@H](CCC(N)=O)C(=O)N2C[C@H](O)C[C@H]2C(=O)N[C@@H](Cc2c[nH]c3ccccc23)C(=O)N[C@@H](CO)C(=O)N[C@@H](Cc2c[nH]c3ccccc23)C(=O)N1C [Example 1514] ({CH2CO}-Y[Morpholine(3S-CO)]DPHQ[Hyp]WSW[NMeNle][NMeNle]ACG-NH2; thioether N-14),8.00 to 9.00
2,CCCC[C@H]1C(=O)N[C@@H](CC(N)=O)C(=O)N2CCC[C@H]2C(=O)N[C@@H](CO)C(=O)N[C@@H](CCO)C(=O)N2C[C@H](O)C[C@H]2C(=O)N[C@@H](Cc2c[nH]c3ccccc23)C(=O)N[C@@H](CCN)C(=O)N[C@@H](Cc2c[nH]c3ccccc23)C(=O)N(C)[C@@H](C)C(=O)N(C)CC(=O)N[C@@H](CCCNC(=N)N)C(=O)NC(C(=O)NCC(N)=O)CSCC(=O)N[C@@H](Cc2ccc(O)cc2)C(=O)N1C (stereo partly drawn) [Example 10206] ({CH2CO}-Y[NMeNle]NPS[hSer][Hyp]W[Dab]W[NMeA][Sar]R[ξC]G-NH2; thioether N-14),5.00 to 6.00
3,CCCC[C@H]1C(=O)N(C)[C@@H](CCCC)C(=O)N[C@@H](CCCN)C(=O)NC(C(=O)NCC(N)=O)CSCC(=O)N[C@@H](Cc2ccc(O)cc2)C(=O)N(C)[C@@H](C)C(=O)N[C@@H](CC(N)=O)C(=O)N2CCC[C@H]2C(=O)N[C@@H](CC(N)=O)C(=O)N[C@@H](CC(C)C)C(=O)N2CCC[C@H]2C(=O)N[C@@H](Cc2c[nH]c3ccccc23)C(=O)N[C@@H](CO)C(=O)N[C@@H](Cc2c[nH]c3ccccc23)C(=O)N1C (stereo partly drawn) [Example 9155] ({CH2CO}-Y[NMeA]NPNLPWSW[NMeNle][NMeNle][Orn][ξC]G-NH2; thioether N-14),8.00 to 9.00
4,CCCC[C@H]1C(=O)N(C)CC(=O)N[C@@H](CC(=O)O)C(=O)N[C@@H](C(C)C)C(=O)N[C@@H](Cc2ccccc2)C(=O)N[C@@H](Cc2ccc(O)cc2)C(=O)N(C)CC(=O)NC(C)(Cc2c[nH]c3ccccc23)C(=O)N[C@@H](Cc2ccc(O)cc2)C(=O)N[C@@H](CC(C)C)C(=O)N[C@H](C(=O)NCC(N)=O)CSCC(=O)N[C@@H](Cc2ccccc2)C(=O)N(C)[C@@H](Cc2ccccc2)C(=O)N1C (stereo partly drawn) [Example 3639] ({CH2CO}-F[NMeF][NMeNle][Sar]DVFY[Sar][ξαMeW]YLCG-NH2; thioether N-13),5.00 to 6.00
5,"CCCC[C@H]1C(=O)N2C[C@H](O)C[C@@H]2C(=O)N[C@@H](CC(=O)O)C(=O)N[C@@H](C(C)C)C(=O)N(C)[C@@H](Cc2ccccc2)C(=O)N[C@@H](CCCN)C(=O)N2C[C@H](O)C[C@@H]2C(=O)N[C@@H](Cc2c[nH]c3ccccc23)C(=O)N[C@@H](Cc2ccc(O)cc2)C(=O)N[C@@H](CCCN)C(=O)N[C@H](C(=O)NCC(N)=O)CSCC(=O)N[C@@H](Cc2ccc(F)c(F)c2)C(=O)N(C)[C@@H](Cc2ccccc2)C(=O)N1C [Example 9308] ({CH2CO}-[Phe(3,4-F2)][NMeF][NMeNle][d(cisHyp)]DV[NMeF][Orn][d(cisHyp)]WY[Orn]CG-NH2; thioether N-13)",8.00 to 9.00
6,CCCC[C@H]1C(=O)N(C)CC(=O)N[C@@H](CC(=O)O)C(=O)N[C@@H](C(C)C)C(=O)N(C)[C@@H](Cc2ccccc2)C(=O)N[C@@H](Cc2ccc(O)cc2)C(=O)N(C)CC(=O)N[C@@H](Cc2c[nH]c3ccccc23)C(=O)N[C@@H](Cc2ccc(O)cc2)C(=O)N[C@@H](CC(C)C)C(=O)N[C@H](C(=O)NCC(N)=O)CSCC(=O)N[C@@H](Cc2ccc3ccccc3c2)C(=O)N(C)[C@@H](Cc2ccccc2)C(=O)N1C [Example 3233] ({CH2CO}-[2Nal][NMeF][NMeNle][Sar]DV[NMeF]Y[Sar]WYLCG-NH2; thioether N-13),5.00 to 6.00
7,CCCC[C@H]1C(=O)N2CCC[C@@H]2C(=O)N[C@@H](CO)C(=O)N[C@@H](C)C(=O)N(C)[C@@H](Cc2ccccc2)C(=O)N[C@@H](Cc2ccc(O)cc2)C(=O)N(C)CC(=O)N[C@@H](Cc2c[nH]c3ccccc23)C(=O)N[C@@H](Cc2ccc(O)cc2)C(=O)N[C@@H](CC(C)C)C(=O)N[C@H](C(=O)NCC(N)=O)CSCC(=O)N[C@@H](Cc2ccccc2)C(=O)N(C)[C@@H](Cc2ccccc2)C(=O)N1C [Example 10054] ({CH2CO}-F[NMeF][NMeNle][dP]SA[NMeF]Y[Sar]WYLCG-NH2; thioether N-13),6.00 to 7.00
8,"CCCC[C@H]1C(=O)N2CCC[C@@H]2C(=O)N[C@@H](CC(=O)O)C(=O)N[C@@H](C(C)C)C(=O)N(C)[C@@H](Cc2ccccc2)C(=O)N[C@@H](CCC(=O)O)C(=O)N2C[C@@H](O)C[C@@H]2C(=O)N[C@@H](Cc2c[nH]c3ccccc23)C(=O)N[C@@H](Cc2ccc(O)cc2)C(=O)N[C@@H](CC(C)C)C(=O)N[C@H](C(=O)NCC(N)=O)CSCC(=O)N[C@@H](Cc2cc(F)c(F)c(F)c2)C(=O)N(C)[C@@H](Cc2ccccc2)C(=O)N1C [Example 9285] ({CH2CO}-[Phe(3,4,5-F3)][NMeF][NMeNle][dP]DV[NMeF]E[dHyp]WYLCG-NH2; thioether N-13)",8.00 to 9.00
9,"CCCC[C@H]1C(=O)N2C[C@H](O)C[C@@H]2C(=O)N[C@@H](CC(=O)O)C(=O)N[C@@H](C(C)C)C(=O)N(C)[C@@H](Cc2ccccc2)C(=O)N[C@@H](Cc2ccc(O)cc2)C(=O)N2C[C@H](O)C[C@@H]2C(=O)N[C@@H](Cc2c[nH]c3ccccc23)C(=O)N[C@@H](Cc2ccc(O)cc2)C(=O)N[C@@H](CC(C)C)C(=O)N[C@H](C(=O)NCC(N)=O)CSCC(=O)N[C@@H](Cc2cc(F)c(F)c(F)c2)C(=O)N(C)[C@@H](Cc2ccccc2)C(=O)N1C [Example 9367] ({CH2CO}-[Phe(3,4,5-F3)][NMeF][NMeNle][d(cisHyp)]DV[NMeF]Y[d(cisHyp)]WYLCG-NH2; thioether N-13)",7.00 to 8.00
10,"CCCC[C@H]1C(=O)N2C[C@H](O)C[C@@H]2C(=O)N[C@@H](CC(=O)O)C(=O)N[C@@H](C(C)C)C(=O)N(C)[C@@H](Cc2ccccc2)C(=O)N[C@@H](CCC(=O)O)C(=O)N2C[C@H](O)C[C@@H]2C(=O)N[C@@H](Cc2c[nH]c3ccccc23)C(=O)N[C@@H](Cc2ccc(O)cc2)C(=O)N[C@@H](CCC(=O)O)C(=O)N[C@H](C(=O)NCC(N)=O)CSCC(=O)N[C@@H](Cc2cc(F)c(F)c(F)c2)C(=O)N(C)[C@@H](Cc2ccccc2)C(=O)N1C [Example 9335] ({CH2CO}-[Phe(3,4,5-F3)][NMeF][NMeNle][d(cisHyp)]DV[NMeF]E[d(cisHyp)]WYECG-NH2; thioether N-13)",7.00 to 8.00
11,"CCCC[C@H]1C(=O)N2CCC[C@@H]2C(=O)N[C@@H](CC(=O)O)C(=O)N[C@@H](C(C)C)C(=O)N(C)[C@@H](Cc2ccccc2)C(=O)N[C@@H](CC(=O)O)C(=O)N2CCCC[C@@H]2C(=O)N[C@@H](Cc2c[nH]c3ccccc23)C(=O)N[C@@H](Cc2ccc(O)cc2)C(=O)N[C@@H](CC(C)C)C(=O)N[C@H](C(=O)NCC(N)=O)CSCC(=O)N[C@@H](Cc2cc(F)c(F)c(F)c2)C(=O)N(C)[C@@H](Cc2ccc(F)cc2)C(=O)N1C [Example 10570] ({CH2CO}-[Phe(3,4,5-F3)][NMePhe(4-F)][NMeNle][dP]DV[NMeF]D[dPip]WYLCG-NH2; thioether N-13)",8.00 to 9.00
12,"CCCC[C@H]1C(=O)N2C[C@H](O)C[C@@H]2C(=O)N[C@@H](CC(=O)O)C(=O)N[C@@H](C(C)C)C(=O)N(C)[C@@H](Cc2ccccc2)C(=O)N[C@@H](CC(N)=O)C(=O)N2C[C@H](O)C[C@@H]2C(=O)N[C@@H](Cc2c[nH]c3ccccc23)C(=O)N[C@@H](Cc2ccc(O)cc2)C(=O)N[C@@H](CC(C)C)C(=O)N[C@H](C(=O)NCC(N)=O)CSCC(=O)N[C@@H](Cc2cc(F)c(F)c(F)c2)C(=O)N(C)[C@@H](Cc2ccccc2)C(=O)N1C [Example 9361] ({CH2CO}-[Phe(3,4,5-F3)][NMeF][NMeNle][d(cisHyp)]DV[NMeF]N[d(cisHyp)]WYLCG-NH2; thioether N-13)",8.00 to 9.00
13,CCCC[C@H]1C(=O)N(C)[C@@H](CCCC)C(=O)N[C@@H](CCC(=O)O)C(=O)NC(C(=O)NCC(N)=O)CSCC(=O)N[C@@H](Cc2ccc(O)cc2)C(=O)N(C)[C@@H](C)C(=O)N[C@@H](CC(N)=O)C(=O)N2CCC[C@H]2C(=O)N[C@@H](Cc2c[nH]cn2)C(=O)N[C@@H](CC(N)=O)C(=O)N2CCC[C@H]2C(=O)N[C@@H](Cc2c[nH]c3ccccc23)C(=O)N[C@@H](CO)C(=O)N[C@@H](Cc2c[nH]c3ccccc23)C(=O)N1C (stereo partly drawn) [Example 9170] ({CH2CO}-Y[NMeA]NPHNPWSW[NMeNle][NMeNle]E[ξC]G-NH2; thioether N-14),7.00 to 8.00
14,CCCC[C@H]1C(=O)N(C)[C@@H](CCCC)C(=O)N[C@@H](CCC(=O)O)C(=O)N[C@H](C(=O)NCC(N)=O)CSCC(=O)N[C@@H](Cc2ccc(OC)cc2)C(=O)N(C)[C@@H](C)C(=O)N[C@@H](CC(N)=O)C(=O)N2CCC[C@H]2C(=O)N[C@@H](CN)C(=O)N[C@@H](CCCCN)C(=O)N2C[C@H](O)C[C@H]2C(=O)N[C@@H](Cc2c[nH]c3ccccc23)C(=O)N[C@@H](CCN)C(=O)N[C@@H](Cc2c[nH]c3ccccc23)C(=O)N1C [Example 7121] ({CH2CO}-Y(Me)[NMeA]NP[Dap]K[Hyp]W[Dab]W[NMeNle][NMeNle]ECG-NH2; thioether N-14),8.00 to 9.00
15,"CCCC[C@H]1C(=O)N2C[C@H](O)C[C@@H]2C(=O)N[C@@H](CC(=O)O)C(=O)N[C@@H](C(C)C)C(=O)N(C)[C@@H](Cc2ccccc2)C(=O)N[C@@H](CCC(=O)O)C(=O)N2CSC[C@@H]2C(=O)N[C@@H](Cc2c[nH]c3ccccc23)C(=O)N[C@@H](Cc2ccc(O)cc2)C(=O)N[C@@H](CCO)C(=O)N[C@H](C(=O)NCC(N)=O)CSCC(=O)N[C@@H](Cc2cc(F)c(F)c(F)c2)C(=O)N(C)[C@@H](Cc2ccccc2)C(=O)N1C [Example 10150] ({CH2CO}-[Phe(3,4,5-F3)][NMeF][NMeNle][d(cisHyp)]DV[NMeF]E[dThz]WY[hSer]CG-NH2; thioether N-13)",8.00 to 9.00
